Consider eight compounds from ChEMBL document CHEMBL1201862, “PubChem BioAssay data set” (2004).

Molecules are shown by their SMILES.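 Results reflect a 48-hour exposure of cells in 96-well plates to compound at five concentrations. GI50 marks 50% less growth.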 The source made the active and inactive calls. Cut-off read from the data, not from the text of the source: active = GI50 up to about 1.1 µM and inactive = higher.

Among the test systems are SF-268; COLO 205; A498; CCRF-CEM; NCI-H226; HCT-116; SK-MEL-5; HT-29; HOP-62; 786-0; CAKI-1; SNB-75; SF-295; M14; SK-MEL-2; EKVX; RXF 393; SF-539; PC-3.
What all share (experiment): inhibition of tumour cell growth, NCI panel, 48 h

Consider `N#C/C(=C\c1ccccc1)C(NO)Nc1ccccc1` (configuration not stated), for which the GI50 in the experiment on SF-268 is 65.3 µM (inactive); in the experiment with COLO 205, 45.3 µM (inactive); in the experiment with A498, 80.2 µM (inactive); in the experiment on CCRF-CEM it was 31.7 µM (inactive); with NCI-H226, > 100 µM (inactive); in the experiment with HCT-116, 40.7 µM (inactive). The GI50 was 53.6 µM (inactive) in the experiment on SK-MEL-5; 72.9 µM (inactive) with HT-29; > 100 µM (inactive) with HOP-62; > 100 µM (inactive) with 786-0; 86.5 µM (inactive) with CAKI-1; 50.6 µM (inactive) with SNB-75. Moreover, the GI50 in the experiment with SF-295 was > 100 µM (inactive); in the experiment on M14, > 100 µM (inactive); with SK-MEL-2 it was > 100 µM (inactive); in the experiment with EKVX, > 100 µM (inactive); in the experiment on RXF 393, 41.5 µM (inactive); with SF-539, 70.3 µM (inactive).

For `CCCNCCCC(NC(C)=O)C(=O)NCc1ccccc1` (configuration not stated), the GI50 in the experiment on SF-268, with COLO 205, in the experiment with A498, in the experiment with CCRF-CEM, with NCI-H226 and in the experiment with HCT-116 was > 100 µM (inactive) throughout. Moreover, the GI50 in the experiment on SK-MEL-5 is > 100 µM (inactive); with HT-29, > 100 µM (inactive); in the experiment on HOP-62 it was > 100 µM (inactive); in the experiment on 786-0 it was > 100 µM (inactive); in the experiment on CAKI-1, > 100 µM (inactive); in the experiment with SNB-75 it was 51.8 µM (inactive). For the same compound, the GI50 in the experiment on SF-295, with M14, in the experiment on SK-MEL-2, in the experiment on EKVX, with RXF 393 and in the experiment on SF-539 was > 100 µM (inactive) each time.

As for `CCOP(=O)(OCC)OC1C=CC2CCC1C2` (configuration not stated), the GI50 in the experiment on SF-268, in the experiment with COLO 205, in the experiment with A498, in the experiment on CCRF-CEM, in the experiment on NCI-H226 and in the experiment with HCT-116 was > 100 µM (inactive) each time. The GI50 with SK-MEL-5 is > 100 µM (inactive); with HT-29, > 100 µM (inactive); with HOP-62, > 100 µM (inactive); in the experiment with 786-0 it was 86.3 µM (inactive); in the experiment with CAKI-1 it was > 100 µM (inactive); in the experiment on SNB-75, > 100 µM (inactive). In addition, the GI50 in the experiment with SF-295, with M14, in the experiment with SK-MEL-2, with EKVX, in the experiment on RXF 393 and in the experiment on SF-539 was > 100 µM (inactive) each time.

Turning to `NC(=O)N/N=C1/CCCC/C1=C\c1ccccc1`, the GI50 with SF-268, in the experiment on COLO 205, with A498, with CCRF-CEM, in the experiment on NCI-H226 and in the experiment with HCT-116 was > 100 µM (inactive) throughout. The GI50 was > 100 µM (inactive) in the experiment with SK-MEL-5; > 100 µM (inactive) in the experiment with HT-29; > 100 µM (inactive) with HOP-62; > 100 µM (inactive) with 786-0; > 100 µM (inactive) in the experiment on CAKI-1; 76.6 µM (inactive) with SNB-75. Also, the GI50 in the experiment with SF-295, in the experiment on M14, in the experiment with SK-MEL-2, with EKVX, with RXF 393 and with SF-539 was > 100 µM (inactive) in each case.

In the case of `C#Cc1cc(CN(CC(=O)OC(C)(C)C)CC(=O)OC(C)(C)C)nc(CN(CC(=O)OC(C)(C)C)CC(=O)OC(C)(C)C)c1`, the GI50 with SF-268 is 4.8 µM (inactive); in the experiment with COLO 205 it was 7.36 µM (inactive); with A498, 17.8 µM (inactive); with CCRF-CEM it was 2.96 µM (inactive); in the experiment with NCI-H226, 0.498 µM (active); in the experiment with SK-MEL-5, 3.59 µM (inactive). Besides, the GI50 in the experiment on HT-29 was 4.4 µM (inactive); in the experiment on HOP-62, 3.92 µM (inactive); in the experiment on 786-0, 7.06 µM (inactive); in the experiment with CAKI-1 it was 10 µM (inactive); with SNB-75 it was 11.6 µM (inactive); in the experiment with SF-295, 4.39 µM (inactive). Further, the GI50 is 5.89 µM (inactive) in the experiment on M14; 2.28 µM (inactive) in the experiment on SK-MEL-2; 11.9 µM (inactive) in the experiment on EKVX; 2.84 µM (inactive) in the experiment with RXF 393; 15.2 µM (inactive) in the experiment with SF-539.

On to `O=C1[C@@H]2C(c3ccc(Cl)cc3Cl)=NO[C@@H]2C(=O)N1c1ccc(Cc2ccc(N3C(=O)[C@H]4C(c5ccc(Cl)cc5Cl)=NO[C@H]4C3=O)cc2)cc1`, for which the GI50 in the experiment on SF-268 is > 100 µM (inactive); in the experiment with COLO 205 it was 50.9 µM (inactive); with A498 it was > 100 µM (inactive); in the experiment with CCRF-CEM it was 12.9 µM (inactive); in the experiment on NCI-H226, > 100 µM (inactive); in the experiment on SK-MEL-5 it was 52.1 µM (inactive). For the same compound, the GI50 is > 100 µM (inactive) in the experiment with HT-29; > 100 µM (inactive) in the experiment on HOP-62; 45.9 µM (inactive) in the experiment with 786-0; 60.4 µM (inactive) with CAKI-1; > 100 µM (inactive) with SNB-75; 74 µM (inactive) with SF-295. For the same compound, the GI50 was 37.7 µM (inactive) with M14; > 100 µM (inactive) in the experiment with SK-MEL-2; > 100 µM (inactive) in the experiment with EKVX; 13.6 µM (inactive) in the experiment with RXF 393; 52.7 µM (inactive) in the experiment on SF-539.

Take `COc1ccc(C2CCC(Cl)(OC)CC2C=O)cc1` (configuration not stated): the GI50 was 21.9 µM (inactive) in the experiment on SF-268; > 100 µM (inactive) in the experiment on COLO 205; > 100 µM (inactive) with A498; 29.7 µM (inactive) in the experiment with CCRF-CEM; > 100 µM (inactive) with NCI-H226; 52 µM (inactive) in the experiment on HCT-116. Besides, the GI50 with SK-MEL-5 was 58.7 µM (inactive); in the experiment on HT-29, 50.7 µM (inactive); in the experiment on HOP-62 it was 94 µM (inactive); in the experiment with 786-0, 45 µM (inactive); in the experiment with CAKI-1, 39.8 µM (inactive); with SNB-75, 31.4 µM (inactive). Also, the GI50 in the experiment with SF-295 is 46.1 µM (inactive); with M14, 40.1 µM (inactive); with SK-MEL-2, 21.9 µM (inactive); in the experiment with EKVX, > 100 µM (inactive); in the experiment with RXF 393 it was 0.128 µM (active); in the experiment with SF-539, 56.4 µM (inactive).

Turning to `Oc1cc(-c2ccccc2)nc2cc3c(cc12)OCO3`, the GI50 was 3.83 µM (inactive) in the experiment on SF-268; 6.21 µM (inactive) in the experiment with COLO 205; 15.1 µM (inactive) in the experiment on A498; 12.2 µM (inactive) in the experiment with CCRF-CEM; 11.8 µM (inactive) in the experiment on NCI-H226; 8 µM (inactive) in the experiment on HCT-116. The GI50 is 3.52 µM (inactive) in the experiment with SK-MEL-5; 7.18 µM (inactive) with HT-29; 9.55 µM (inactive) with HOP-62; 9.95 µM (inactive) in the experiment on 786-0; 2.6 µM (inactive) with SNB-75; 30.2 µM (inactive) with PC-3. In addition, the GI50 in the experiment with SF-295 is 8.57 µM (inactive); with M14 it was 7.36 µM (inactive); in the experiment with SK-MEL-2 it was 19.5 µM (inactive); in the experiment on EKVX, 15.6 µM (inactive); in the experiment with RXF 393 it was 5.69 µM (inactive); in the experiment on SF-539 it was 6.05 µM (inactive).
